Measured values as given in US20240132485A1, “HETEROCYCLIC CULLIN RING UBIQUITIN LIGASE COMPOUNDS AND USES THEREOF” (CEMM - FORSCHUNGSZENTRUM FÜR MOLEKULARE MEDIZIN GMBH, priority 2020, published 2024).
pEC50: −log10 of the molar value.

How the values were obtained:
[1] = tested on: KBM7 cells (wild-type); experiment: KBM7 CTG EC50 assay (UBE2M wild-type); format: cell-based, human; settings: for pEC50: Homo sapiens, KBM-7, 72 h incubation, CellTiter-Glo, read-out: KBM7 CTG EC50 (UBE2M wild-type) Activity Class; for Ratio UBE2M WT to KO: ratio of anti-proliferative activity in KBM7 wild-type versus UBE2M knock-out cells (fold)
Excerpt: (§1) This is a cell viability assay to measure the desired therapeutic effect, i.e. killing of cancer cells. The UBE2M mutant cell line has impaired activity of the Cullin-RING ligase system due to a hypomorphic mutation in UBE2M, which is required for activation of these E3 ligases. By comparison with WT cells, it is possible to estimate the contribution of Cyclin K degradation (which is reduced in UBE2M mut cells) compared to kinase inhibition of CDK12 (which is unaffected in UBE2M mut cells). Since the UBE2M mutation only reduces CRL function without fully abrogating it, this assay may slightly underestimate the effect of degradation because, at high compound concentrations, degradation may still be observed.
(§2) KBM7 cells (wild-type or harboring α hypomorphic UBE2M mutation (Mayor-Ruiz et al., 2019)) were seeded in a white opaque 384-well plate at a density of 1000 cells per well in duplicate, in full medium (IMDM+10% FBS+1% penicillin-streptomycin). Cells were treated with compounds in a 10-point titration with a dilution factor of 1:4 (range: 0 to 20 μM). After 72 h of incubation, the cell viability was determined using the CellTiter-Glo® 2.0 reactant (Promega), pre-diluted 1:4 in mQ water. The luminescence signal was measured using the multimode plate reader EnVision 2105 (Perkin Elmer).

[2] = tested on: KBM7 cells harboring a hypomorphic UBE2M mutation; experiment: KBM7 CTG EC50 assay (UBE2M knock-out); format: cell-based; settings: Homo sapiens, KBM-7; 72 h incubation, CellTiter-Glo; read-out: KBM7 CTG EC50 (UBE2M knock-out) Activity Class
Excerpt: as §1, §2

[3] = target: T1, DDB1-CDK12/Cyclin K ternary complex (Homo sapiens, UniProt Q16531+Q9NYV4); experiment: NanoBRET fold-change assay (HaloTag_CDK12 / NanoLuc_DDB1 in HEK293T); format: cell-based; settings: 10 μM compound, 10 minutes
T1 construct: expressed in transfected cells; host or cells: HEK293T wildtype cells, transient PEI transfection
Protocol: (§3) This assay measures the interaction/recruitment of CDK12/Cyclin K to DDB1, mechanistically validating the molecular glue pharmacology.
(§4) HEK293T wildtype cells are seeded 800 k cells/well (DMEM+10% FBS+1% PS) in a 6-well plate and allowed to attach for ˜7 hours followed by a transient transfection of 1.5 μg HaloTag_CDK12 Plasmid [Table 1] and 0.15 μg NanoLuc_DDB1 plasmid [Table 1] per well using PEI. Cells are incubated at 37° C., 5% CO2, harvested after 24 hours and resuspended in assay media (Opti-MEM Reduced serum media, no phenol red, 4% FBS, 1% PS). Cells are adjusted to 2.3×10^5 cells/ml and treated with HaloTag 618 Ligand at 100 nM or DMSO. 8000 cells are seeded per well in triplicates per compound in a white-walled 384-well plate, one negative control treated with DMSO instead of HaloTag 618 Ligand is seeded in triplicates and the 384-well plate is incubated at 37° C., 5% CO2 overnight. Compound stock solutions are prepared in Opti-MEM−/− (Opti-MEM I Reduced serum media, no phenol red) at 8× and used to treat the cells at a final concentration of 1× at 10 μM. Cells and compounds are incubated for 10 minutes at room temperature followed by addition of NanoBRET Nano-Glo substrate following manufacturer's protocols. The plate is shaken for 30 sec followed by immediate measurement of donor emission (NanoBRET Blue at 460 nm) and acceptor emission (BRET Deep Red at 647 nm) for 0.5 s.

[4] = target: T1, DDB1-CDK12/Cyclin K ternary complex; experiment: NanoBRET EC50 assay (HaloTag_CDK12 / NanoLuc_DDB1 in HEK293T); format: cell-based; settings: for NanoBRET EC50 Activity Class / pEC50: 10-point titration from 20 μM, HEK293T; for pEC50: read-out: NanoBRET EC50 Activity Class
Protocol: as §3, §4
The assay setup is identical to “NanoBRET fold change experimental setup”. Instead of treating cells in […] with 10 μM compound, a 10-point titration starting at 20 μM is performed with a dilution factor of 1:4, covering α range of 20000 nM-0.076 nM.

[5] = tested on: CCNK; experiment: NanoLuc-CCNK degradation assay (HEK293T_Nluc_CCNK-tagged cells); format: cell-based; settings: for DC50 / NanoLuc-CCNK degradation DC50 Activity Class: 4 h incubation, HEK293T_Nluc_CCNK-tagged cells; for DC50: read-out: NanoLuc-CCNK degradation DC50 Activity Class
Protocol: The assay helps to elucidate the mechanistic explanation of the cell killing effect of the compounds of the present invention. Cyclin K is fused to a nanoluciferase, light emission is measured as a proxy of Cyclin K abundance. Potency of Cyclin K degradation and cytotoxicity of KBM7 correlate extremely well, further supporting Cyclin K degradation being the main driver of the cell killing, as opposed to inhibition of CDK12 catalytic activity.
HEK293T_Nluc_CCNK-tagged cells were engineered by integrating a nanoluciferase tag at the N-terminus of the endogenous locus of CCNK using CRISPR-Cas9 technology. Briefly, 5.5 million HEK293T cells were co-transfected by PEI with a 1:1 ratio of cutting vector (sgRNA: […]) and repair template (4 μg total plasmid) as previously described (Brand and Winter, 2019). The repair sequence comprises a cassette of puromycinR-P2A-HA-Nluc-(G4S)3 (P2A: self-cleaving peptide 2A, HA: HA-tag, (G4S)3: flexible linker), surrounded by 20-nucleotide microhomologies matching the genomic locus. After 3 days of incubation, the recombinant population was selected by puromycin treatment (2 μg/ml, 5-day treatment). A monoclonal population was obtained by limiting dilution and cassette integration validated by Sanger sequencing.
HEK293T_Nluc_CCNK-tagged cells were seeded in a white opaque 384-well plate at a density of 8000 cells per well in duplicate, in full medium (Opti-MEM I+4% FBS+1% PS). Cells were treated with compounds in a 10-point titration (range: 0 to 10 μM, 1:4 dilution). After 4 h of incubation, Nano-Glo substrate (Promega), pre-diluted in serum-free medium (Opti-MEM I), was added to the cells (1:500 final dilution). The luminescence signal was directly measured using the multimode plate reader EnVision 2105 (Perkin Elmer).

T1 sequence (Q9NYV4 whole entry): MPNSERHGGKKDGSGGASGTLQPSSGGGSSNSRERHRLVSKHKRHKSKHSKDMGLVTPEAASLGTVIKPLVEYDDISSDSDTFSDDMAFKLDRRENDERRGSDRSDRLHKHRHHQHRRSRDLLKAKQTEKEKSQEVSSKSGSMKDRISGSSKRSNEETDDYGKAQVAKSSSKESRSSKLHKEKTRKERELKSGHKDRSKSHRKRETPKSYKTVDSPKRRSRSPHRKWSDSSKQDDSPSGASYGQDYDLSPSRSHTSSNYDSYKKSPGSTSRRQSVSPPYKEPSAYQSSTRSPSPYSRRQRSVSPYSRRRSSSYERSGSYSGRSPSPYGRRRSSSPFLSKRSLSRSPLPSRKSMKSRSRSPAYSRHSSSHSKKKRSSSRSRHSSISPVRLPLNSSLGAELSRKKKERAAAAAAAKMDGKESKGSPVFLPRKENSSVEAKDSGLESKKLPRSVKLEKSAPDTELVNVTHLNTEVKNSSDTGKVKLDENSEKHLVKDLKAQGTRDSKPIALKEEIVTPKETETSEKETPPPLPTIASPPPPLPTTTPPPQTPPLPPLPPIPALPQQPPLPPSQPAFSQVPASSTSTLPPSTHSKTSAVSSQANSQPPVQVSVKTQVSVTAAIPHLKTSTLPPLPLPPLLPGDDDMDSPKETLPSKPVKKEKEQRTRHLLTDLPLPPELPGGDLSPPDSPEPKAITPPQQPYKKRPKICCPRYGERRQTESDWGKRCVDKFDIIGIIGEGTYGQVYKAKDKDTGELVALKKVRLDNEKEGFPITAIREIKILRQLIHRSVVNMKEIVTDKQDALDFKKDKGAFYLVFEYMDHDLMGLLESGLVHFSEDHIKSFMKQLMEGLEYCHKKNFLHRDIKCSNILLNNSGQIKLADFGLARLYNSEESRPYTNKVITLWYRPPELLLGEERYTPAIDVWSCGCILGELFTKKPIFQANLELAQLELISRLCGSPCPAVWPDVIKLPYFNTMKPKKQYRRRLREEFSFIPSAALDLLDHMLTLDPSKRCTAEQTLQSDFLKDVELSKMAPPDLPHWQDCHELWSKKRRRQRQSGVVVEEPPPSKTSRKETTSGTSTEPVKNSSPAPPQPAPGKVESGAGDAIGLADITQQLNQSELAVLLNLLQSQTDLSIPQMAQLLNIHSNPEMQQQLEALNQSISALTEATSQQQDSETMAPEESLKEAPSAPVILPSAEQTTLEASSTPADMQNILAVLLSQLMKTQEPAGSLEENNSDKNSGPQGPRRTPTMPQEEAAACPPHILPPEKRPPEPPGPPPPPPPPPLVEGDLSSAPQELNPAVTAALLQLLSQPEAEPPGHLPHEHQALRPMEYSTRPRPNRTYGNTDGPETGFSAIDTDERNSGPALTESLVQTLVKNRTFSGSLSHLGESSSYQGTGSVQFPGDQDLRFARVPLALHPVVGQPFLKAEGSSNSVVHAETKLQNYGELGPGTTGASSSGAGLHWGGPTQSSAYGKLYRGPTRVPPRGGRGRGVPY
T1 sequence (Q16531 whole entry): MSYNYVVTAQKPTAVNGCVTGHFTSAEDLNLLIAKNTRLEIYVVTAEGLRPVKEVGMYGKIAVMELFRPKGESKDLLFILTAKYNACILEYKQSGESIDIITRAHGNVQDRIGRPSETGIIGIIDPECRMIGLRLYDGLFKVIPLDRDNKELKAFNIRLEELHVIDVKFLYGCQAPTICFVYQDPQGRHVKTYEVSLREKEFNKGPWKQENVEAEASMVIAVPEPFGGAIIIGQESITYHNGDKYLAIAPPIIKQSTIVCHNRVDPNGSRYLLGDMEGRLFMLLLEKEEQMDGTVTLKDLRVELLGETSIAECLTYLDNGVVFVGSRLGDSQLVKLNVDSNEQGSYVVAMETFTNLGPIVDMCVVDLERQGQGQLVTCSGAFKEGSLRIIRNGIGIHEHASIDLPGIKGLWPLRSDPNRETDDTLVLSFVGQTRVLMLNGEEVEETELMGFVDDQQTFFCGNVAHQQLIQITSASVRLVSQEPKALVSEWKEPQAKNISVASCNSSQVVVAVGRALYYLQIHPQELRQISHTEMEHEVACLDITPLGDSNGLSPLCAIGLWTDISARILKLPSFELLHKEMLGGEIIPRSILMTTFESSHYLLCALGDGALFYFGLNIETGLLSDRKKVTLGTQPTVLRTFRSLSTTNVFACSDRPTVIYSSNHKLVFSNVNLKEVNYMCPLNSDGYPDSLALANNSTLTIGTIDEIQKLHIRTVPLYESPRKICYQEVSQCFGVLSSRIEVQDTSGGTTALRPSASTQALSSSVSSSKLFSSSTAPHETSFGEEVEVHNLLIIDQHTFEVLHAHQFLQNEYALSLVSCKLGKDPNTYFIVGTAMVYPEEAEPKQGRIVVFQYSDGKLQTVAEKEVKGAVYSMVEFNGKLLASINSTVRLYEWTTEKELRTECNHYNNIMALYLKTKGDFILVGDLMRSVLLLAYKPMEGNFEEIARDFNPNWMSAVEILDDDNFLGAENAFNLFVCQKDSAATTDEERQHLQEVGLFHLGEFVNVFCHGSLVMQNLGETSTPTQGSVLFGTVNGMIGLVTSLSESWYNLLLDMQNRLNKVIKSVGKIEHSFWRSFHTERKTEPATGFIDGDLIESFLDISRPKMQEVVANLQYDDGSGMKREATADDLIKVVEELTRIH
T1 sequence (O75909 whole entry partner): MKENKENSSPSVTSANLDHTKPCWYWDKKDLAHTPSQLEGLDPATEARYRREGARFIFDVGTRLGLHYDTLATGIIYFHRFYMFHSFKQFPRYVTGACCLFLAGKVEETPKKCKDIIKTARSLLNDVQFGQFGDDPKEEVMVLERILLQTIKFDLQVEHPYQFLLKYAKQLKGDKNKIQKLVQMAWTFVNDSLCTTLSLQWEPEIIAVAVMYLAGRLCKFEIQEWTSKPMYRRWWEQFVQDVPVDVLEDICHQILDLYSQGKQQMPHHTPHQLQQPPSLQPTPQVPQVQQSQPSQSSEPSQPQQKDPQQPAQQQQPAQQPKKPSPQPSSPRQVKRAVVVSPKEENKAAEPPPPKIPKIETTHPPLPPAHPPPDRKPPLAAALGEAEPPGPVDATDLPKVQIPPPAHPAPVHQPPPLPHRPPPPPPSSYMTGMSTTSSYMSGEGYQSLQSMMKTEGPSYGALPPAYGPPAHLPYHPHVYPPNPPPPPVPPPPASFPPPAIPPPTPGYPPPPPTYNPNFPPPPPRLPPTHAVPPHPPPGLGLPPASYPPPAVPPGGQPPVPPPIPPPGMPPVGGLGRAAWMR

Row | SMILES | pEC50 [1] | Ratio UBE2M WT to KO [1] | pEC50 [2] | NanoBRET fold-change Activity Class [3] | NanoBRET EC50 Activity Class [4] | DC50 [5] [nM] | NanoLuc-CCNK degradation DC50 Activity Class [5] | pEC50 [4] | activity in NanoBRET assay (ternary complex formation), in words [4] | activity in NanoLuc CCNK degradation assay, in words [5] | dependence of cytotoxicity on UBE2M, in words ([1]; KBM7 wild-type versus UBE2M mutant) | activity in KBM7 cytotoxicity assay, in words ([1]; KBM7)
1 | Cc1cc(N2CC(C(=O)Nc3ncc(C(F)(F)F)s3)CC2=O)ccc1F (centres unmarked) [Example 3-17, 1-(4-fluoro-3-methylphenyl)-5-oxo-N-(5-(trifluoromethyl)thiazol-2-yl)pyrrolidine-3-carboxamide] | ≥ 6.60 | 17.0 | 6.30 to 6.60 | A (greater than 4-fold increase) | B (0.50 μM≤EC50≤0.25 μM) | ≤ 100 | – | – | – | – | – | –
2 | O=C(Cc1c[nH]c2cccnc12)Nc1ncc(C(F)(F)F)s1 [Example 3-40, 2-(1H-pyrrolo[3,2-b]pyridin-3-yl)-N-(5-(trifluoromethyl)thiazol-2-yl)acetamide] | ≥ 6.60 | >200 | < 5.00 | – | B (0.50 μM≤EC50≤0.25 μM) | – | D (10 μM≤DC50<1.0 μM) | – | – | – | – | –
3 | CC(C)c1cnc(NC(=O)Cc2cn3cc(F)ccc3n2)s1 [Example 3-4, 2-(6-fluoroimidazo[1,2-a]pyridin-2-yl)-N-(5-isopropylthiazol-2-yl)acetamide] | ≥ 6.60 | 82.6 | 5.00 to 6.00 | A (greater than 4-fold increase) | – | – | B (0.50 μM≤DC50<0.10 μM) | ≥ 6.60 | – | – | – | –
4 | O=C(Cc1cn2cc(F)ccc2n1)Nc1ncc(C(F)(F)F)s1 [Example 3-5, 2-(6-fluoroimidazo[1,2-a]pyridin-2-yl)-N-(5-(trifluoromethyl)thiazol-2-yl)acetamide] | ≥ 6.60 | 142 | 6.30 to 6.60 | B (3-4 fold increase) | C (1.0 μM≤EC50<0.50 μM) | ≤ 100 | – | – | particularly exceptional | particularly exceptional | – | –
5 | Cc1cnc(NC(=O)Cc2coc3c(C)c(C)ccc23)s1 [Example 3-1, 2-(6,7-dimethylbenzofuran-3-yl)-N-(5-methylthiazol-2-yl)acetamide] | ≥ 6.60 | 25.3 | 6.00 to 6.30 | B (3-4 fold increase) | – | – | B (0.50 μM≤DC50<0.10 μM) | ≥ 6.60 | – | – | – | –
6 | Cc1ccc2c(CC(=O)Nc3cc(C(C)C)[nH]n3)coc2c1C [Example 3-45, 2-(6,7-dimethylbenzofuran-3-yl)-N-(5-isopropyl-1H-pyrazol-3-yl)acetamide] | ≥ 6.60 | 18.6 | ≥ 6.60 | A (greater than 4-fold increase) | B (0.50 μM≤EC50≤0.25 μM) | ≤ 100 | – | – | – | – | extremely high dependence | –
7 | O=C(Cc1cn2cc(F)ccc2n1)Nc1ncc(C2CC2)s1 [Example 3-43, N-(5-cyclopropylthiazol-2-yl)-2-(6-fluoroimidazo[1,2-a]pyridin-2-yl)acetamide] | ≥ 6.60 | – | ≥ 6.60 | A (greater than 4-fold increase) | – | ≤ 100 | – | ≥ 6.60 | exceptional | exceptional | – | extremely potent activity
8 | Cc1ccc2c(CC(=O)Nc3ccc(C(C)C)cn3)coc2c1C [Example 3-51, 2-(6,7-dimethylbenzofuran-3-yl)-N-(5-isopropylpyridin-2-yl)acetamide] | 5.00 to 6.00 | >8 | < 5.00 | B (3-4 fold increase) | C (1.0 μM≤EC50<0.50 μM) | – | D (10 μM≤DC50<1.0 μM) | – | – | – | – | –
9 | Cc1ccc2c(CC(=O)Nc3cc(C(F)(F)F)[nH]n3)coc2c1C [Example 3-48, 2-(6,7-dimethylbenzofuran-3-yl)-N-(5-(trifluoromethyl)-1H-pyrazol-3-yl)acetamide] | ≥ 6.60 | 15.7 | 6.00 to 6.30 | B (3-4 fold increase) | B (0.50 μM≤EC50≤0.25 μM) | – | B (0.50 μM≤DC50<0.10 μM) | – | – | – | – | –
10 | O=C(Nc1ncc(C(F)(F)F)s1)C1CC(=O)N(Cc2ccc(Cl)cc2)C1 (centres unmarked) [Example 3-28, 1-(4-chlorobenzyl)-5-oxo-N-(5-(trifluoromethyl)thiazol-2-yl)pyrrolidine-3-carboxamide] | ≥ 6.60 | 42.7 | 5.00 to 6.00 | B (3-4 fold increase) | – | – | C (1.0 μM≤DC50<0.50 μM) | – | – | – | – | –
11 | O=C(Nc1ncc(C(F)(F)F)s1)C1CC(=O)N(c2ccc(F)cc2)C1 (centres unmarked) [Example 3-26, 1-(4-fluorophenyl)-5-oxo-N-(5-(trifluoromethyl)thiazol-2-yl)pyrrolidine-3-carboxamide] | 5.00 to 6.00 | >5 | < 5.00 | C (2-3 fold increase) | – | > 10000 | – | – | – | – | – | –
12 | O=C(Cc1ccc2cnccc2c1)Nc1ncc(C(F)(F)F)s1 [Example 3-31, 2-(isoquinolin-6-yl)-N-(5-(trifluoromethyl)thiazol-2-yl)acetamide] | 5.00 to 6.00 | >4 | < 5.00 | C (2-3 fold increase) | – | > 10000 | – | – | – | – | – | –
13 | Cc1ccc2ncn(CC(=O)Nc3ncc(C(F)(F)F)s3)c2c1 [Example 3-15, 2-(6-methyl-1H-benzo[d]imidazol-1-yl)-N-(5-(trifluoromethyl)thiazol-2-yl)acetamide] | 5.00 to 6.00 | >4 | < 5.00 | D (1-2 fold increase) | – | > 10000 | – | – | – | – | – | –
14 | O=C(Cc1cc2ccccc2s1)Nc1ncc(C(F)(F)F)s1 [Example 3-10, 2-(benzo[b]thiophen-2-yl)-N-(5-(trifluoromethyl)thiazol-2-yl)acetamide] | ≥ 6.60 | 23.6 | 5.00 to 6.00 | C (2-3 fold increase) | – | ≤ 100 | – | – | – | – | – | –
